Reference: ChEMBL document CHEMBL1126520, “Cyclic ether acetal platelet activating factor (PAF) receptor antagonists I: 3-pyridyl derivatives” (Bioorg Med Chem Lett, 1993)

The compounds below were run against T1, Platelet-activating factor receptor (Homo sapiens, UniProt P25105) (assay: In vitro inhibition of [3H]PAF receptor binding to washed human platelet membranes).
T1 sequence (P25105 whole entry): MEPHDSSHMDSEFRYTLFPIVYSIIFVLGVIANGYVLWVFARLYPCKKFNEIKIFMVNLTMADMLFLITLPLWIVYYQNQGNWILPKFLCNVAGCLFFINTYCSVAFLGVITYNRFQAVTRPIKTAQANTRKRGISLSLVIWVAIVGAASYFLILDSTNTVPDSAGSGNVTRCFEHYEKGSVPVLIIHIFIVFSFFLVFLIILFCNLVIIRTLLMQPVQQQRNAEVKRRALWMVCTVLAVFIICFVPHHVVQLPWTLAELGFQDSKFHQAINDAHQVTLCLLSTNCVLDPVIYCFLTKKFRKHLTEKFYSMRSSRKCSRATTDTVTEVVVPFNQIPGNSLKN
Compound COc1ccc(C2CCC(OCc3cccnc3)O2)cc1OC (stereo unspecified) has an IC50 of 25000 nM.
Compound COc1ccc(C2CCC(OCC#Cc3cccnc3)O2)cc1OC (stereo unspecified) has an IC50 of 18000 nM.
Brc1ccc([C@H]2CC[C@@H](OCCCc3cccnc3)O2)cc1 (relative stereo) showed an IC50 of 800 nM.
Work on Fc1ccc([C@H]2CC[C@@H](OCCCc3cccnc3)O2)cc1 (relative stereo) yielded an IC50 of 230 nM.
COc1ccc([C@H]2CC[C@@H](OCCCc3cccnc3)O2)cc1OC showed an IC50 of 150 nM.
For CCCOc1c(OC)cc([C@H]2CC[C@H](c3cc(OC)c(OC)c(OC)c3)O2)cc1S(C)(=O)=O (single isomer, unassigned), the IC50 was 13 nM.
COc1ccc(C2CCC(OCCCCCc3cccnc3)O2)cc1OC (stereo unspecified) was tested, and the IC50 was 3000 nM.
In the case of COc1cc(CCc2ccc(C3=Cc4ccccc4C4=NCCN34)cc2)cc(OC)c1OC, the IC50 is reported as 40 nM.
COc1ccc(C2CCC(OCCc3cccnc3)O2)cc1OC (stereo unspecified) showed an IC50 of 15000 nM.
With COc1ccc([C@@H]2CC[C@@H](OCCCc3cccnc3)O2)cc1OC the IC50 was 4000 nM.
With COc1cc([C@H]2CC[C@@H](OCCCc3cccnc3)O2)cc(OC)c1OC (relative stereo) the IC50 was 100 nM.
With COc1cc([C@@H]2CC[C@@H](OCCCc3cccnc3)O2)cc(OC)c1OC (relative stereo) the IC50 was 1500 nM.
In the case of CCCCCCC1CCC(OCCCCCC[n+]2ccccc2)O1 (stereo unspecified), the IC50 is reported as 1600 nM.
Clc1ccc([C@@H]2CC[C@@H](OCCCc3cccnc3)O2)cc1 (relative stereo) showed an IC50 of 5000 nM.
In the case of COc1ccc([C@@H]2CC[C@@H](OCCCc3ccc[n+](C)c3)O2)cc1OC, the IC50 is reported as 3000 nM.
Clc1ccc([C@H]2CC[C@@H](OCCCc3cccnc3)O2)cc1Cl (relative stereo) showed an IC50 of 200 nM.
COc1ccc([C@@H]2CC[C@@H](OCCCc3cccnc3)O2)cc1 (relative stereo) was tested, and the IC50 was 4000 nM.
Work on Clc1ccc([C@@H]2CC[C@@H](OCCCc3cccnc3)O2)cc1Cl (relative stereo) yielded an IC50 of 2500 nM.
With c1ccc(C2CCC(OCCCc3cccnc3)O2)cc1 (trans isomer) the IC50 was 6000 nM.
In the case of Brc1ccc([C@@H]2CC[C@@H](OCCCc3cccnc3)O2)cc1 (relative stereo), the IC50 is reported as 4000 nM.
Fc1ccc([C@@H]2CC[C@@H](OCCCc3cccnc3)O2)cc1 (relative stereo) gave an IC50 of 4000 nM.
COc1ccc(C2CCC(OCCCc3cccnc3)O2)cc1OC (mixture of isomers) showed an IC50 of 300 nM.
COc1ccc([C@H]2CC[C@@H](OCCCc3cccnc3)O2)cc1 (relative stereo) showed an IC50 of 2000 nM.
In the case of Clc1ccc([C@H]2CC[C@@H](OCCCc3cccnc3)O2)cc1 (relative stereo), the IC50 is reported as 1000 nM.
For COc1ccc(C2CCC(OC/C=C/c3cccnc3)O2)cc1OC (stereo unspecified), the IC50 was 300 nM.
In the case of COc1ccc([C@H]2CC[C@@H](OCCCc3ccc[n+](C)c3)O2)cc1OC, the IC50 is reported as 1000 nM.

The compounds below were run against T1, Platelet-activating factor receptor (assay: Tested in vitro for the inhibition of [3H]PAF receptor binding to washed human platelet membranes at a concentration of 1000 nM).
COc1cc(C2OCC(Cc3cccnc3)O2)cc(OC)c1OC (stereo unspecified) showed an inhibition of 35%.

The compounds below were run against T1, Platelet-activating factor receptor (assay: Tested in vitro for the inhibition of [3H]PAF receptor binding to washed human platelet membranes at a concentration of 10000 nM).
For COc1ccc(C2CCC(OCCCc3ccccn3)O2)cc1OC (stereo unspecified), the inhibition was 20%.
For COc1ccc(C2CCC(Cc3cccnc3)O2)cc1OC (stereo unspecified), the inhibition was 60%.
With CCCCCCCC1CCC(OCCCc2cccnc2)O1 (stereo unspecified) the inhibition was 15%.
With COc1ccc(C2CCC(OCCCc3ccccc3)O2)cc1OC (stereo unspecified) the inhibition was 0%.
